Laboratory results from patent publication US20230005594A1, “CLINICAL DECISION SUPPORT FOR PERSONALIZED ADAPTIVE PROSTATE CANCER THERAPY” (H. LEE MOFFITT CANCER CENTER AND RESEARCH INSTITUTE, INC., priority 2019, published 2023).
Several values for one entry are separate records, joined by “and”; a condition that tells them apart may be missing. Equal values may be shown once. Read-outs that look alike come from different tables or passages of the source.

What was measured:
castration-resistant PCa = test: Clinical trial of second-line intermittent AA therapy (NCT02415621); format: in vivo, human
Text: Prior theoretical, pre-clinical, and clinical studies have questioned the utilization of MTD treatment in non-curative settings. That is, continuous MTD treatment fails to consider the evolutionary dynamics of treatment presponse, where competition, adaptation and selection between treatment sensitive and resistant cells contribute to therapy failure. In fact, this strategy, by maximally selecting for resistant phenotypes and eliminating other competing populations, may actually accelerate the emergence of resistant populations—a well-studied evolutionary phenomenon termed “competitive release.” In part to address this issue, prior trials have used an intermittent on- and off-ADT (IADT) to reduce toxicity and delay time to progression (TTP). […]
Survival benefits have not been confirmed clinically, which can be due to the conservative trial designs of long on-treatment cycles (7-8 months) and short off-cycles. […] PSA values can be monitored every four weeks as done in the clinic. […] For Patient 36, relative PSA values of 50% or 90% of pre-treatment PSA levels as triggers to pause IADT and pre-treatment PSA levels to resume IADT yield longer TTP than the static triggers (PSA monitored every 4 weeks, IADT is paused if PSA<4 ng/mL for consecutive 36 weeks, and IADT resumes if PSA>10 ng/mL). […]

[1] = system: metastatic castration resistant prostate cancer (mCRPC); conditions: cited from earlier work
PCa = conditions: cited from earlier work
hormone-refractory PCa = conditions: docetaxel added at end of ADT; cited from earlier work
advanced prostate cancer = conditions: patients with advanced prostate cancer; cited from earlier work
PCaSC = conditions: cited from earlier work
[2] = system: metastatic, hormone-sensitive PCa; conditions: cited from earlier work
[3] = abiraterone plus gonadotropin-releasing hormone analog, AA-302 trial
[4] = docetaxel plus ADT, added at beginning of hormone therapy

Row | SMILES | median TTP (castration-resistant PCa; continuous MTD AA) [months] | median TTP (castration-resistant PCa; intermittent AA therapy, median not reached) | PSA response rate [1, 3] [%] | median time to progression [1, 3] [months] | overall survival compared to prednisone or placebo ([1]; second-line hormone therapy) | increase in overall survival time compared to ADT alone (PCa; docetaxel added at beginning of long-term hormone therapy) | TTP (PCa; [4]) [months] | overall survival time (PCa; [4]) | increase in survival (hormone-refractory PCa) [months] | survival (hormone-refractory PCa) [months] | Total tumor regression rate (δS+δC), median (advanced prostate cancer) [day⁻¹] | Total tumor regression rate (δS+δC), range (advanced prostate cancer) [day⁻¹] | PCaSC docetaxel sensitivity as share of PCaC sensitivity (PCaSC) | survival benefit ([2]; CHAARTED trial, LVD patients) | overall survival benefit ([2]; CHAARTED trial, patients with HVD) | increase in overall survival ([2]; GETUG-AFU15, high volume disease (HVD), DOC with continuous ADT, non-significant) [%] | survival benefit ([2]; GETUG-AFU15, low volume disease (LVD)) | overall survival benefit ([2]; STAMPEDE trial, median follow-up of 43 months)
1 | CC(=O)O[C@H]1CC[C@@]2(C)C(=CC[C@@H]3[C@@H]2CC[C@]2(C)C(c4cccnc4)=CC[C@@H]32)C1 [abiraterone acetate] | 13 | at least 33 months | 62 | 11.1 | prolong overall survival |  |  |  |  |  |  |  |  |  |  |  |  | 
2 | CC(=O)O[C@@]12CO[C@@H]1C[C@H](O)[C@@]1(C)C(=O)[C@H](O)C3=C(C)[C@@H](OC(=O)[C@H](O)[C@@H](NC(=O)OC(C)(C)C)c4ccccc4)C[C@@](O)([C@@H](OC(=O)c4ccccc4)[C@H]21)C3(C)C [docetaxel] |  |  |  |  |  | 10-13 months | 20.2 | 81 months and 57.6 months | 2.4 | 18.9 | 0.015 | 0.006 to 0.032 | about 25% | no statistically significant survival benefit | statistically significant overall survival benefit | 20 | no survival benefit | more than 12 months
